Laboratory results from publication PMC3482425 (Journal of medicinal chemistry, 2012).

Columns and labels:
LSD1 = details: read-out: IC50 (LSD1 inhibitor); cited from earlier work
[1] = system: SFRP2 in Calu-6 anaplastic epithelial lung carcinoma cells; assay: Re-expression of SFRP2 in Calu-6 cells; type: cell-based, human; details: 24 or 48 hours
[2] = system: global H3K4me2 levels in Calu-6 human lung adenocarcinoma cells; assay: cells; details: Calu-6, 48 h, read-out: H3K4me2 Fold Increase (48 h), 10 μM, Calu-6 cells
[3] = system: H3K4me1 levels in Calu-6 human lung adenocarcinoma cell line; assay: Global H3K4me1 levels in Calu-6 cells; type: cell-based; details: at both 24 and 48 hours
[4] = system: global H3K4me2 levels in Calu-6 human lung adenocarcinoma cells; details: time point not stated
[5] = system: HCAD in Calu-6 anaplastic epithelial lung carcinoma cells; assay: Re-expression of HCAD in Calu-6 cells; type: cell-based, human; details: 10 μM

N=C(N)NN [Aminoguanidine]
effect on SFRP2 levels ([1]; 1 mM): no effect

N=C(NCCCNCCCCCCCNCCCNC(=N)NC(=N)NCCC(c1ccccc1)c1ccccc1)NC(=N)NCCC(c1ccccc1)c1ccccc1 [Compound 2d, (bis)-3,3-(diphenyl)propylbiguanide, reference compound]
fold induction at 10 µM [2]: 5

Cl.N=C(N)SCCN1C(=O)c2ccccc2C1=O [Compound 5, 2-[N-(phthalimido)]ethyl carbamimidothioate hydrochloride]
Increases in H3K4me1 levels [3]: unremarkable

Cl.Cl.NCCNc1c([N+](=O)[O-])cc(C(F)(F)F)cc1[N+](=O)[O-] [Compound 6]
Increases in H3K4me1 levels [3]: unremarkable
changes in H3K4 / lysine methylation in the Calu-6 cell line [4]: no effect

Cl.N=C(N)SCCCN1C(=O)c2ccccc2C1=O [Compound 8]
Increases in H3K4me1 levels [3]: unremarkable

Cl.N=C(N)SCCCCN1C(=O)c2ccccc2C1=O [Compound 9]
Increases in H3K4me1 levels [3]: unremarkable

CCNCCCCNCCCCNCCCCNCCCCNC/C=C/CNCCCCNCCCCNCCCCNCCCCNCC [PG11144]
fold increase in HCAD expression, 24 hours [5]: 1.47 fold
effect on SFRP2 levels ([1]; 5 μM): no effect
